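How tested: cells in 96-well plates exposed to compound for 48 hours at five concentrations. The concentration for 50% growth inhibition is given as GI50.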 The source made the active and inactive calls. No stated cut-off is given here; in the data, active = GI50 up to about 1.1 µM and inactive = higher.
Assays:
Assay in all cases: NCI tumour cell line growth inhibition, 48 h
LXFL 529 = test system: LXFL 529
SK-MEL-2 = test system: SK-MEL-2
NCI-H226 = test system: NCI-H226
MOLT-4 = test system: MOLT-4
K562 = test system: K562
U-251 = test system: U-251
SF-295 = test system: SF-295
PC-3 = test system: PC-3
HCT-15 = test system: HCT-15
UACC-62 = test system: UACC-62
DLD-1 = test system: DLD-1
HT-29 = test system: HT-29
NCI-H460 = test system: NCI-H460
DMS-273 = test system: DMS-273
NCI-H23 = test system: NCI-H23
SNB-75 = test system: SNB-75
786-0 = test system: 786-0
SNB-19 = test system: SNB-19
LOX IMVI = test system: LOX IMVI
MCF7 = test system: MCF7

Row | Compound | GI50 (LXFL 529) | GI50 (SK-MEL-2) | GI50 (NCI-H226) | GI50 (MOLT-4) | GI50 (K562) | GI50 (U-251) | GI50 (SF-295) | GI50 (PC-3) | GI50 (HCT-15) [µM] | GI50 (UACC-62) | GI50 (DLD-1) | GI50 (HT-29) | GI50 (NCI-H460) | GI50 (DMS-273) | GI50 (NCI-H23) | GI50 (SNB-75) | GI50 (786-0) | GI50 (SNB-19) | GI50 (LOX IMVI) | GI50 (MCF7)
1 | O=S1(=O)CCN(c2ccccc2CC(c2c[nH]c3ccccc23)c2c[nH]c3ccccc23)CC1 | 4.13 µM (inactive) | 6.24 µM (inactive) | 12.7 µM (inactive) | 2.33 µM (inactive) | 3.08 µM (inactive) | 7.87 µM (inactive) | 8.02 µM (inactive) | 3.64 µM (inactive) | 4.94 | 8.99 µM (inactive) | 4.37 µM (inactive) | 4.59 µM (inactive) | 2.67 µM (inactive) | 8.63 µM (inactive) | 6.67 µM (inactive) | 5.02 µM (inactive) | 6.03 µM (inactive) | 12.3 µM (inactive) | 3.57 µM (inactive) | 3.66 µM (inactive)
2 | CCOC(=O)CCC(NC(=O)c1ccc(/N=C/c2nc3ccccc3nc2-c2ccccc2)cc1)C(=O)OCC (stereo unspecified) | > 100 µM (inactive) | > 100 µM (inactive) | > 100 µM (inactive) | > 100 µM (inactive) | > 100 µM (inactive) | > 100 µM (inactive) | > 100 µM (inactive) |  | > 100 | > 100 µM (inactive) | > 100 µM (inactive) | > 100 µM (inactive) | > 100 µM (inactive) | > 100 µM (inactive) | > 100 µM (inactive) | 20 µM (inactive) | > 100 µM (inactive) | > 100 µM (inactive) | > 100 µM (inactive) | 
3 | N#Cc1nn(-c2ccc(Cl)cc2)c(=N)c2c(N)n3nc(-c4ccccc4)cc3nc12 | 0.705 µM (active) | 1 µM (active) | 39.7 µM (inactive) | 0.294 µM (active) | 1 µM (active) | 0.556 µM (active) | 0.681 µM (active) |  | 1 | 1 µM (active) | 1 µM (active) | 1 µM (active) | 1 µM (active) | 1 µM (active) | 0.83 µM (active) | 1 µM (active) | 38.5 µM (inactive) | 1 µM (active) | 0.594 µM (active) | 

From ChEMBL document CHEMBL1201862, “PubChem BioAssay data set” (2004)
